In brackets after ≈: the same amount, converted by molar mass. Several values for one entry are separate records, joined by “and”; a condition that tells them apart may be missing. Identical values can stand only once. Like-named read-outs stand apart in the source and are kept apart here.
Assays:
[1] = system: Varicella Zoster Virus (VZV); assay: microbe, parasite or virus in culture; conditions: Human alphaherpesvirus 3, MRC5, read-out: Digoxin IC50
[2] = Protocol: Permeation experiments were carried out using all glass Franz-type cells incorporating callous plantar skin between a donor and receptor phase. Callous cuttings of approximately 0.6 cm diameter were required to fit the customised ‘franz’ cells used. Consequently, an in vitro permeation study was conducted that used 5 cells per gel treatment, with no more than a total of 15 cells being run simultaneously. […] An infinite dose of gel (˜1 g) was added to each donor compartment via syringe and PEG400, being used as a receptor phase in each, thereby enabling adequate ‘sink’ conditions, limiting hydrodynamic boundary effects and tissue swelling effects. The applied gel was occluded with glass cover slips and the cells stirred in a thermostatically controlled water bath, maintaining the skin temperature at 32° C. […] A total of five replicates were carried our for each gel. All samples were immediately analysed by HPLC.
The breakthrough time was taken from the point at which permeant was first detected in the receptor phase (dependent on the MDL for each permeant). Lag times were calculated by extrapolating the linear section of the cumulative amount permeated (steady state flux) to the X-axis (time).

Adenovirus = assay: 50% plaque inhibitory concentration, Adenovirus; conditions: unidentified adenovirus, A549, read-out: Digoxin IC50
MRC5 cells [3] = conditions: uninfected cells; drug(s) at VZV ID 50 concentrations
[4] = system: Herpes simplex virus (HSV); assay: HSV virus yield (infectious virus particle production); assay type: cell-based; conditions: solvent as listed per compound; Torasemide at 90 μg/ml
MRC5 cells [5] = assay: MRC5 cell replication; conditions: Frusemide 1.0 mg/ml; Digoxin 0.05 μg/ml; both at their VZV ID50 concentrations
[6] = for Flux: Q24 divided by 24
[7] = Saturated solubility in solvents and co-solvent mixes at 32° C
[8] = system: Varicella Zoster Virus (VZV)
[9] = system: Herpes simplex virus (HSV); assay: HSV standard plaque inhibition assay; assay type: cell-based
From the text: Using Herpes simplex virus (HSV), 50% plaque inhibitory dose (1D50) were established using the standard plaque inhibition assay.

MRC5 cells [10] = assay: MRC5 cell morphology / tolerance; conditions: Frusemide 1.0 mg/ml; Digoxin 0.05 ug/ml; combined dosage at individual ID 50; 72 hours
physchem = conditions: 32 °C, aqueous with cosolvent or surfactant or cyclodextrin, thermodynamic from solid
Cytomegalovirus = assay: 50% plaque inhibitory concentration, Cytomegalovirus; conditions: Human betaherpesvirus 5, MRC5, read-out: Digoxin IC50
[11] = ‘Max’ Furosemide Gel Formulation

C[C@H]1O[C@@H](O[C@H]2[C@@H](O)C[C@H](O[C@H]3[C@@H](O)C[C@H](O[C@H]4CC[C@@]5(C)[C@H](CC[C@@H]6[C@@H]5C[C@@H](O)[C@]5(C)[C@@H](C7=CC(=O)OC7)CC[C@]65O)C4)O[C@@H]3C)O[C@@H]2C)C[C@H](O)[C@@H]1O [Digoxin]
IC50 [1]: 0.02 ± 0.0075 µg/mL (≈ 0.0256 µM) | Lag time ([2]; 40:40:20 Prototype gel): 100 h | Permeation co-efficient ([2]; 40:40:20 Prototype gel): 1.1 × 10^−3 cmhr^−1 | Steady state flux ([2]; 40:40:20 Prototype gel): 1.14 ± 0.28 μc cm^−2hr^−1 | Breakthrough time ([2]; Dig/Fur Ampule Gel Formulation): ~24 h | Lag time ([2]; Dig/Fur Ampule Gel Formulation): 82 h | Steady state flux ([2]; Dig/Fur Ampule Gel Formulation): 0.069 μc cm^−2hr^−1 | reduction of amount permeated, prototype versus ‘Max’ Digoxin gel ([2]; at 144 hours): 3.36 fold | steady state of flux ([2]; prototype gel): 1.14±0.28 μg cm^−2 hr^−1 | amount permeated ([2]; prototype gel, at 144 hours): 30 μg cm^−2 | Lag time ([2]; ‘Max’ Digoxin Gel Formulation): 18 h | Steady state flux ([2]; ‘Max’ Digoxin Gel Formulation): 1.015 μc cm^−2hr^−1 | Breakthrough time ([2]; ‘Max’ Digoxin Gel Formulation (50:40:10, 8% HPC, pH 5)): ~1 h | steady state of flux ([2]; ‘Max’ Digoxin gel formulation): 1.015 μg cm^−2 hr^−1 | amount permeated ([2]; ‘Max’ Digoxin gel, at 144 hours): 101 μg cm^−2 | Lag time [2, 11]: 68 h | Steady state flux [2, 11]: 0.455 μc cm^−2hr^−1 | Breakthrough time ([2]; ‘Max’ Furosemide Gel Formulation (50:20:20:10, 8% HPC, pH 5)): ~12 h | IC50 (Adenovirus): 0.077 ± 0.022 µg/mL (≈ 0.0986 µM) | MRC5 cell metabolism, MTT assay (MRC5 cells [3]): normal levels of metabolism | HSV yield [4]: HSV yield reduced | Virus particles per cell (feline herpesvirus; each drug at its IC50, alone or both combined, No Drug 50): 0.75 | production of infectious virus reduced by (feline herpesvirus; each drug at its IC50, individually or in combination): 98.5% | remaining low level of virus replication (feline herpesvirus; each drug individually at its IC50): 0.5% | replication of uninfected MRC5 cells (MRC5 cells [5]): replicated to normal yields | maximum concentrations observed in the receptor phase ([6]; 40:40:20 gels): 42.47 µg/mL | Release date ([6]; Ampule Formulation): 8.1 μg cm^−2 h^0.5 | Q24 ([6]; Ampule Formulation (8% HPC)): 34 μg cm^−2 | Flux ([6]; Ampule Formulation): 1.4 μg cm^−2 h^−1 | % applied dose ([6]; Gel 1:1, pH 7): 1.6% | Release Rate ([6]; Gel 1:1, pH 7): 3.48 μg cm^−2 h^0.5 | Flux ([6]; Gel 1:1, pH 7): 0.59 μg cm^−2 h^−1 | Q24 ([6]; Gel 1:1, prototype 40:40:20 mix, pH 7, 24 h): 14.07 μg cm^−2 | Q24 ([6]; Gel 14:1 (F:D), prototype 40:40:20 mix, […] 981NF, pH 5, 24 h): 42.47 μg cm^−2 | Flux ([6]; Gel 14:1, pH 5): 1.77 μg cm^−2 h^−1 | % applied dose ([6]; Gel 14:1, pH 5, assuming 2 g of gel in donor): 4.0% | Release Rate ([6]; Gel 14:1, pH 5, gradient of square root of time plot): 10.18 μg cm^−2 h^0.5 | % applied dose ([6]; Gel 14:1, pH 7): 1.6% | Flux ([6]; Gel 14:1, pH 7): 0.73 μg cm^−2 h^−1 | % applied dose ([6]; Gel 14:1, pH 9): 0.1% | Flux ([6]; Gel 14:1, pH 9): 0.14 μg cm^−2 h^−1 | Q24 ([6]; Gel 14:1, prototype 40:40:20 mix, pH 7, 24 h): 17.62 μg cm^−2 | Q24 ([6]; Gel 14:1, prototype 40:40:20 mix, pH 9, 24 h): 3.34 μg cm^−2 | Release date ([6]; HPC Formulation): 245 μg cm^−2 h^0.5 and 243 μg cm^−2 h^0.5 | Q24 ([6]; HPC Formulation (revised 50:40:10 gel, 8% HPC, pH 5, 14:1)): 934 μg cm^−2 | Flux ([6]; HPC Formulation): 39 μg cm^−2 h^−1 | Release date ([6]; Ultrez Formulation): 274 μg cm^−2 h^0.5 | Q24 ([6]; Ultrez Formulation (revised 50:40:10 gel, […] Ultrez, pH 5, 14:1)): 1138 μg cm^−2 | Flux ([6]; Ultrez Formulation): 45 μg cm^−2 h^−1 | reduction of release rate, 1:1 Gel versus 1:14 Gel ([6]; pH 7): 1.2 fold | solubility in water ([7]; 32° C): relatively insoluble in water | solubility at 24 h ([7]; 32 °C, organic solvent or mixture, thermodynamic from solid): 6270 µg/mL (≈ 8020 µM) | number of moles in saturated solution ([7]; 40:40:20 co-solvents mix): 0.55 μmol cm^−3 | saturation limit ([7]; 40:40:20 co-solvents mix): 433 μg cm^−3 | increase in solubility, second versus first co-solvent mix ([7]; 50:40:10 versus 40:40:20): −15 fold | solubility in each individual solvent ([7]; ethanol, propylene glycol, PEG400, water, 32° C): highest solubility in ethanol and propylene glycol with relatively low solubility in PEG400 and water | VZV plaques ([8]; Digoxin 0.025 ug/ml, HIGH MOI): TNTC | VZV plaques ([8]; Digoxin 0.025 ug/ml, INTERMEDIATE MOI): TNTC | VZV plaques ([8]; Digoxin 0.025 ug/ml, LOW MOI, control 61): 55^ | VZV plaques ([8]; Digoxin 0.050 ug/ml, HIGH MOI): TNTC | VZV plaques ([8]; Digoxin 0.050 ug/ml, INTERMEDIATE MOI): TNTC | VZV plaques ([8]; Digoxin 0.050 ug/ml, LOW MOI, control 61): 21^3 | VZV plaques ([8]; Digoxin 0.100 ug/ml, HIGH MOI): 0^4 | VZV plaques ([8]; Digoxin 0.100 ug/ml, INTERMEDIATE MOI): 0^4 | VZV plaques ([8]; Digoxin 0.100 ug/ml, LOW MOI, control 61): 0^4 | VZV plaque formation inhibited by ([8]; Frusemide at 1.0 mg/ml, Digoxin at 0.05 ug/ml): 50% | VZV plaques ([8]; High MOI (100 × Low), drug(s) at IC50): TNTC | VZV plaques ([8]; Intermediate MOI (10 × Low), drug(s) at IC50): TNTC | VZV plaques ([8]; Low MOI, drug(s) at IC50, Control 61): 21 and 21^5 | VZV plaque formation inhibited by ([8]; each at respective IC50, Low MOI): about 50% | ICVT activity [9]: potent ICVT activity | ID50 [9]: 60 ng per ml | comparative ‘ICVT-ivities’ [9]: as effective as Lanoxin | IC50 ([9]; BHK-21, read-out: Digoxin IC50): 0.03 µg/mL (≈ 0.0384 µM) | IC50 ([9]; MRC5, read-out: Digoxin IC50): 0.02 ± 0.0075 µg/mL (≈ 0.0256 µM) | IC50 ([9]; Vero, read-out: Digoxin IC50): 0.06 µg/mL (≈ 0.0768 µM) | tolerance by MRC5 cells (morphology, replication) (MRC5 cells [10]): very well tolerated | solubility at 24 h (physchem): 433 µg/mL (≈ 554 µM) | IC50 (Cytomegalovirus): 0.02 ± 0.0075 µg/mL (≈ 0.0256 µM)
